Test results from US20220298138A1, “ENZYME INHIBITORS” (KALVISTA PHARMACEUTICALS LIMITED, priority 2019, published 2022).

Tests used:
Human FXIa = molecular target: T1, Human FXIa (Homo sapiens, UniProt P03951); test: FXIa inhibitory activity in vitro (fluorogenic substrate Z-Gly-Pro-Arg-AFC), selectivity; type: biochemical; conditions: category scale, 25° C.
T1 construct: Human FXIa (Enzyme Research Laboratories) was incubated; purchased Enzyme Research Laboratories
Protocol: Determination of the % Inhibition for FXIa
Human FXIa (Enzyme Research Laboratories) was incubated at 25° C. with the fluorogenic substrate Z-Gly-Pro-Arg-AFC and various concentrations of the test compound. Residual enzyme activity (initial rate of reaction) was determined by measuring the change in fluorescence at 410 nm and the IC50 value for the test compound was determined.

Human Factor XIIa = molecular target: T2, Human Factor XIIa (Homo sapiens, UniProt P00748); test: Factor XIIa inhibitory activity in vitro (fluorogenic substrate H-DPro-Phe-Arg-AFC); type: biochemical; conditions: 25° C., class symbols, read-out: Human FXIIa IC50
T2 construct: purchased Enzyme Research Laboratories
T2 sequence (P00748 373-615 limits assumed): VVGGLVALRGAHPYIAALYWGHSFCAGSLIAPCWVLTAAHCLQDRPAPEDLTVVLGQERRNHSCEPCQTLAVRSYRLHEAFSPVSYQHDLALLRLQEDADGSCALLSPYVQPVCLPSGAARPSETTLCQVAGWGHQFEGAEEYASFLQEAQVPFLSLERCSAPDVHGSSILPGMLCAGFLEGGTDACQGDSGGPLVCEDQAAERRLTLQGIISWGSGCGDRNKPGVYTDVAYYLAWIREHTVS
How it was run: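 Enzyme incubated at 25° C with fluorogenic substrate H-DPro-Phe-Arg-AFC and a range of compound concentrations. Residual activity taken as initial reaction rate from […], giving IC50.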

T1 sequence (P03951 388-625 limits assumed): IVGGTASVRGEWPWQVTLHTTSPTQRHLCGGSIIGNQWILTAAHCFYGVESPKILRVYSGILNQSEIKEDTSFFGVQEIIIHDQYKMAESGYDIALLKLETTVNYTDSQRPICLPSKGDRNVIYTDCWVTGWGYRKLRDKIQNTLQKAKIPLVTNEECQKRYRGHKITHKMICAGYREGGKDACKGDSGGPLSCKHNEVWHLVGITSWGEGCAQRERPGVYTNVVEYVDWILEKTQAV
T1 sequence (P03951 19-387 partner limits assumed): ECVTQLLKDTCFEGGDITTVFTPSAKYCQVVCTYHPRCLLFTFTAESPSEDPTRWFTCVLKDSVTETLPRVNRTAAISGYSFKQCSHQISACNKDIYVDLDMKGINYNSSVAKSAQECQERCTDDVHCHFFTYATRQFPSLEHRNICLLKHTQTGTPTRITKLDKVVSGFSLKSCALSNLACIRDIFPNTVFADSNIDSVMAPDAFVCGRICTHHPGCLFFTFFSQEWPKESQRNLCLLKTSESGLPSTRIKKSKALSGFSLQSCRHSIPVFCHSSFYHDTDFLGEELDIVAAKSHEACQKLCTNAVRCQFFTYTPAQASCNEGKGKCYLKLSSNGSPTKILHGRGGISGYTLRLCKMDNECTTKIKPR

| SMILES | IC50 (Human FXIa) | IC50 (Human Factor XIIa) |
| --- | --- | --- |
| C[C@H](NC(=O)[C@@H](CCc1ccccc1)NS(C)(=O)=O)C(=O)NCc1ccc2c(N)nccc2c1 [Example 6.20] | 0.3 to 1 µM | 0.28 to 1 µM |
| C[C@H](NC(=O)[C@H](N)CCCCN1CCCCC1)C(=O)NCc1ccc2c(N)nccc2c1 [Example 6.14] | 10 to 40 µM | 1 to 3 µM |
| Nc1nccc2cc(CNC(=O)[C@H](Cc3ccc(F)c(F)c3)NC(=O)CCCCCN3CCCCC3)ccc12 [Example 12.11] | > 40 µM | 0.28 to 1 µM |
| C[C@H](NC(=O)[C@@H](CCc1ccccc1)NC(=O)OC(C)(C)C)C(=O)NCc1ccc2c(N)nccc2c1 [Example 6.25] | 10 to 40 µM | 3 to 10 µM |
| Nc1nccc2cc(CNC(=O)CNC(=O)c3ccc(N4CCOCC4)cc3)ccc12 [Example 18.106] | > 40 µM | 10 to 40 µM |
| CC(C)N[C@H](CCc1ccccc1)C(=O)N[C@@H](C)C(=O)NCc1ccc2[nH]cc(Cl)c2c1 [Example 9.08] | 10 to 40 µM | 1 to 3 µM |
| CN[C@H](CCc1ccccc1)C(=O)N[C@@H](C)C(=O)NCc1ccc2c(N)nccc2c1 [Example 6.10] | 10 to 40 µM | 0.1 to 0.279 µM |
| CN[C@H](CCc1ccccc1)C(=O)N1CC[C@H]1C(=O)NCc1ccc2c(N)nccc2c1 [Example 17.08] | > 40 µM | 0.28 to 1 µM |
| CC(NC(=O)[C@H](N)CCc1ccccc1)C(=O)NCc1ccc2ccnc(N)c2c1 (some centres unmarked) [Example 6.21] | > 40 µM | 10 to 40 µM |
| N[C@H](CCCCN1CCC(F)(F)CC1)C(=O)N1CC[C@H]1C(=O)NCc1ccc2[nH]cc(Cl)c2c1 [Example 10.12] | > 40 µM | 1 to 3 µM |
| CC(C)Oc1cc(C(=O)N[C@@H](Cc2ccc(F)c(F)c2)C(=O)NCc2ccc3c(N)nccc3c2)ccn1 [Example 0.95] | > 40 µM | 10 to 40 µM |
| COc1ccc(-n2ccc(C(F)(F)F)n2)c(CNC(=O)[C@H](C)NC(=O)[C@@H](N)CCc2ccccc2)c1F [Example 9.05] | 1 to 3 µM | 10 to 40 µM |
| N[C@H](CCCCN1CCCC(F)(F)C1)C(=O)N1CC[C@H]1C(=O)NCc1ccc2[nH]cc(Cl)c2c1 [Example 10.15] | > 40 µM | 3 to 10 µM |
| N[C@H](CCCCn1ccnc1)C(=O)N1CC[C@H]1C(=O)NCc1ccc2[nH]cc(Cl)c2c1 [Example 10.13] | > 40 µM | 3 to 10 µM |
| Nc1nccc2cc(CNC(=O)CNC(=O)c3ccc4ccccc4n3)ccc12 [Example 18.107] | > 40 µM | 10 to 40 µM |
| C[C@H](NC(=O)[C@H](N)CCc1ccccc1)C(=O)N[C@@H]1CCc2c1ccnc2N [Example 9.02] | > 40 µM | 0.28 to 1 µM |
| N[C@H](CCCCN1CCN(c2ncccn2)CC1)C(=O)N1CC[C@H]1C(=O)NCc1ccc2[nH]cc(Cl)c2c1 [Example 10.08] | > 40 µM | 3 to 10 µM |
| Nc1nccc2cc(CNC(=O)[C@H](Cc3ccc(F)c(F)c3)NC(=O)CN3CCOc4ccccc4C3)ccc12 [Example 3.33] |  | 10 to 40 µM |
| Nc1nccc2cc(CNC(=O)[C@H](Cc3ccc(F)c(F)c3)NC(=O)c3cccc(N4CCCC4=O)c3)ccc12 [Example 0.81] |  | 3 to 10 µM |
| Nc1nccc2cc(CNC(=O)[C@H](Cc3ccc(F)c(F)c3)NC(=O)Cc3ccccn3)ccc12 [Example 3.34] |  | 10 to 40 µM |
| C[C@H](NC(=O)[C@@H](CCc1ccccc1)NS(C)(=O)=O)C(=O)NCc1cnc2[nH]cc(Cl)c2c1 [Example 9.21] |  | 10 to 40 µM |

| SMILES | IC50 (Human FXIa) | IC50 (Human Factor XIIa) |
| --- | --- | --- |
| C[C@@H]1CCC[C@H](C)N1CC(=O)N[C@@H](Cc1ccc(F)c(F)c1)C(=O)NCc1ccc2c(N)noc2c1 [Example 3.105, (2S)—N-[(3-amino-1,2-benzoxazol-6-yl)methyl]-3-(3,4-difluorophenyl)-2-{2-[(2R,6S)-2,6-dimethylpiperidin-1-yl]acetamido}propanamide] |  | 10 to 40 µM |
| Nc1nccc2cc(CNC(=O)[C@H](Cc3ccc(F)c(F)c3)NC(=O)c3ccc(F)c(F)c3)ccc12 [Example 0.49] |  | 10 to 40 µM |
| C[C@@H]1CCC[C@H](C)N1CC(=O)N[C@H](Cc1ccc(F)c(F)c1)C(=O)NCc1ccc2c(N)nccc2c1 [Example 3.17] |  | 1 to 3 µM |
| CC1CCCC(C)N1CC(=O)N[C@@H](Cc1ccc(F)c(F)c1)C(=O)NCc1cnc2[nH]cc(Cl)c2c1 (some centres unmarked) [Example 3.101] |  | 1 to 3 µM |
| Nc1nccc2cc(CNC(=O)[C@H](Cc3ccc(F)c(F)c3)NC(=O)CCS(=O)(=O)c3ccccc3)ccc12 [Example 0.41] |  | 3 to 10 µM |
| CC1CCCC(C)N1CC(=O)N[C@@H](Cc1cccc(F)c1)C(=O)NCc1ccc2c(N)nccc2c1 (some centres unmarked) [Example 3.04] |  | 0.1 to 0.279 µM |
| Nc1nccc2cc(CNC(=O)[C@@H]3CCCN(C(=O)[C@H](N)CCc4ccccc4)C3)ccc12 [Example 17.04] |  | 3 to 10 µM |
| Nc1nccc2cc(CNC(=O)[C@H](Cc3ccc(F)c(F)c3)NC(=O)CCc3ccccc3)ccc12 [Example 0.46] |  | 10 to 40 µM |
| CC(C)c1cc(C(=O)N[C@@H](Cc2ccc(F)c(F)c2)C(=O)NCc2ccc3c(N)nccc3c2)n(C)n1 [Example 0.90] |  | 10 to 40 µM |
| C[C@H](NC(=O)[C@@H](CCc1ccccc1)NC(=O)c1ccccc1)C(=O)NCc1ccc2c(N)nccc2c1 [Example 6.26] |  | 10 to 40 µM |
| CC(C)N[C@H](CCc1ccccc1)C(=O)N[C@@H](Cc1ccc(F)c(F)c1)C(=O)NCc1ccc2c(N)nccc2c1 [Example 12.12] |  | 3 to 10 µM |
| Cn1nc(C(C)(C)C)cc1C(=O)N[C@@H](Cc1ccc(F)c(F)c1)C(=O)NCc1ccc2c(N)nccc2c1 [Example 0.88] |  | 10 to 40 µM |
| Nc1nccc2cc(CNC(=O)[C@H](Cc3ccc(F)c(F)c3)NC(=O)c3ccc(Cn4cnnn4)cc3)ccc12 [Example 0.67] |  | 1 to 3 µM |
| CC(NC(=O)[C@@H](CCc1ccccc1)NC1CCOCC1)C(=O)NCc1cnc2[nH]cc(Cl)c2c1 (some centres unmarked) [Example 9.22] |  | 10 to 40 µM |
| C[C@@H]1CCC[C@H](C)N1CC(=O)N[C@@H](Cc1ccc(F)c(F)c1)C(=O)NCc1ccc2c(N)n[nH]c2c1 [Example 3.104, (2S)—N-[(3-amino-1H-indazol-6-yl)methyl]-3-(3,4-difluorophenyl)-2-{2-[(2R,6S)-2,6-dimethylpiperidin-1-yl]acetamido}propanamide] |  | 10 to 40 µM |
| CC(C)N[C@H](CCc1ccccc1)C(=O)N[C@@H](C)C(=O)NCCc1ccnc(N)c1 [Example 9.12] |  | 10 to 40 µM |
| Nc1nccc2cc(CNC(=O)[C@H](Cc3ccc(F)c(F)c3)NC(=O)c3cc(CO)ccn3)ccc12 [Example 0.59] |  | 3 to 10 µM |
| CC(C)N[C@H](CCc1ccccc1)C(=O)N[C@@H](C)C(=O)NCC1CNc2ccc(Cl)cc2O1 (some centres unmarked) [Example 9.20] |  | 10 to 40 µM |
| CN(C)[C@H](CCc1ccccc1)C(=O)NCC(=O)NCc1ccc2c(N)nccc2c1 [Example 18.104] |  | 1 to 3 µM |
| Nc1nccc2cc(CNC(=O)[C@H](Cc3ccc(F)c(F)c3)NC(=O)CN3CCCCC3=O)ccc12 [Example 3.39] |  | 10 to 40 µM |

Further lines, results first:

| IC50 (Human FXIa) | IC50 (Human Factor XIIa) | SMILES |
| --- | --- | --- |
| 3 to 10 µM | 0.28 to 1 µM | CC(C)N[C@H](CCc1ccccc1)C(=O)N(C)[C@@H](C)C(=O)NCc1ccc2c(N)nccc2c1 [Example 65.01] |
| > 40 µM | 10 to 40 µM | C[C@@H]1CCC[C@H](C)N1CC(=O)N1CC2CC(C(=O)NCc3ccc4c(N)nccc4c3)C1C2 (some centres unmarked) [Example 32.14] |
| > 40 µM | 3 to 10 µM | C[C@@H]1CCC[C@H](C)N1CC(=O)NC1(C(=O)NCc2ccc3c(N)nccc3c2)CC1 [Example 39.09] |
| 3 to 10 µM | 10 to 40 µM | C[C@H](NC(=O)[C@H]1Cc2ccccc2CN1)C(=O)NCc1ccc2c(N)nccc2c1 [Example 45.04] |
| > 40 µM | 0.03 to 0.1 µM | CC(C)N[C@H](CCCCN1CCCCC1)C(=O)N[C@@H](Cc1ccc(F)c(F)c1)C(=O)NCc1cnc2[nH]cc(Cl)c2c1 [Example 27.04] |
| 3 to 10 µM | 1 to 3 µM | C[C@H](NC(=O)[C@H]1C[C@H](c2ccccc2)CN1)C(=O)NCc1ccc2c(N)nccc2c1 [Example 45.03] |
| > 40 µM | 0.28 to 1 µM | Nc1nccc2cc(CNC(=O)C3(NC(=O)[C@H](N)CCc4ccccc4)CC3)ccc12 [Example 54.01] |
| 10 to 40 µM | 1 to 3 µM | Nc1nccc2cc(CNC(=O)C3(NC(=O)[C@H](N)CCc4ccccc4)CCC3)ccc12 [Example 54.02] |
| > 40 µM | 10 to 40 µM | C[C@@H]1CCC[C@H](C)N1CC(=O)N1C[C@H]2[C@@H]([C@H]1C(=O)NCc1ccc3c(N)nccc3c1)C2(C)C [Example 32.13] |
|  | 10 to 40 µM | CC1CCCC(C)N1CC(=O)NCCC(=O)NCc1ccc2c(N)nccc2c1 (centres unmarked) [Example 39.01] |
|  | 10 to 40 µM | C[C@@H]1CCC[C@H](C)N1CC(=O)N1c2ccccc2CC[C@H]1C(=O)NCc1ccc2c(N)nccc2c1 [Example 32.09] |
|  | 3 to 10 µM | C[C@@H]1CCC[C@H](C)N1CC(=O)N[C@@H](Cc1ccc(F)c(F)c1)C(=O)NC1CCN(c2ccncc2)CC1 [Example 34.02] |
|  | 10 to 40 µM | Nc1nccc2cc(CNC(=O)[C@@H](N)Cc3cccc(F)c3)ccc12 [Example 24.02] |
|  | 10 to 40 µM | CC(C)N1CCC[C@@H]1C(=O)N[C@@H](Cc1ccc(F)c(F)c1)C(=O)NC1CCN(c2ccncc2)CC1 [Example 44.02] |
|  | 10 to 40 µM | CS(=O)(=O)N[C@@H](Cc1ccc(F)c(F)c1)C(=O)NCc1ccc2c(N)nccc2c1 [Example 55.02] |
|  | 10 to 40 µM | C[C@@H]1CCC[C@H](C)N1CC(=O)N[C@H](CC(=O)NCc1ccc2c(N)nccc2c1)Cc1ccccc1 [Example 39.04] |
